Test results published in ChEMBL document CHEMBL1201862, “PubChem BioAssay data set” (2004).
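Following 48 hours of exposure in 96-well plates, responses at five concentrations were used to interpolate endpoints linearly. GI50 = concentration required for 50% inhibition of growth.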 Activity calls are given as the source filed them. Rule as the data show it: active = GI50 up to about 1.1 µM and inactive = higher.

How the values were obtained:
Test in all cases: NCI anticancer screen, dose series, 48 h
[1] = system: 786-0
[2] = system: A498
[3] = system: A549
[4] = system: ACHN
[5] = system: CAKI-1
[6] = system: CCRF-CEM
[7] = system: COLO 205
[8] = system: DLD-1
[9] = system: DMS-114
[10] = system: DMS-273
[11] = system: EKVX
[12] = system: HCC 2998
[13] = system: HCT-116
[14] = system: HCT-15
[15] = system: HL-60
[16] = system: HOP-18
[17] = system: HOP-62
[18] = system: HOP-92
[19] = system: HT-29
[20] = system: IGROV-1
[21] = system: K562
[22] = system: KM-20L2
[23] = system: KM12
[24] = system: LOX IMVI
[25] = system: LXFL 529
[26] = system: M14
[27] = system: M19-MEL
[28] = system: MOLT-4
[29] = system: Malme-3M
[30] = system: NCI-H226
[31] = system: NCI-H23
[32] = system: NCI-H460
[33] = system: NCI-H522
[34] = system: OVCAR-3
[35] = system: OVCAR-4
[36] = system: OVCAR-5
[37] = system: OVCAR-8
[38] = system: RPMI-8226
[39] = system: RXF 393
[40] = system: RXF 631
[41] = system: SF-268
[42] = system: SK-OV-3
[43] = system: SN12C
[44] = system: SNB-19
[45] = system: SNB-75
[46] = system: SNB-78
[47] = system: SR
[48] = system: SW-620
[49] = system: TK-10
[50] = system: U-251
[51] = system: UACC-257
[52] = system: UACC-62
[53] = system: UO-31
[54] = system: XF498
[55] = system: SF-295
[56] = system: SF-539
[57] = system: SK-MEL-28
[58] = system: SK-MEL-2
[59] = system: SK-MEL-5

For COC(=O)C(C(=O)C(=O)Nc1ccccc1OC)c1csc(-n2nc(-c3ccccc3)cc2-c2ccccc2)n1 (stereo unspecified), which GI50 [1] is on record?
Its GI50 is > 100 µM (inactive).

What about the GI50 [2] of the same compound?
Its GI50 is > 100 µM (inactive).

And the GI50 [3]?
The GI50 was > 100 µM (inactive).

What about the GI50 [4] of the same compound?
Its GI50 is > 100 µM (inactive).

What about the GI50 [5] of the same compound?
Its GI50 is > 100 µM (inactive).

And the GI50 [6]?
Its GI50 is > 100 µM (inactive).

And the GI50 [7]?
Its GI50 is > 100 µM (inactive).

And the GI50 [8]?
The GI50 was > 100 µM (inactive).

And the GI50 [9]?
The GI50 was 49.5 µM (inactive).

And the GI50 [10]?
The GI50 was > 100 µM (inactive).

And the GI50 [11]?
Its GI50 is 43.1 µM (inactive).

What about the GI50 [12] of the same compound?
Its GI50 is > 100 µM (inactive).

What about the GI50 [13] of the same compound?
Its GI50 is > 100 µM (inactive).

And the GI50 [14]?
Its GI50 is > 100 µM.

What about the GI50 [15] of the same compound?
Its GI50 is > 100 µM (inactive).

And the GI50 [16]?
Its GI50 is 14.8 µM (inactive).

And the GI50 [17]?
Its GI50 is > 100 µM (inactive).

What about the GI50 [18] of the same compound?
The GI50 was > 100 µM (inactive).

What about the GI50 [19] of the same compound?
Its GI50 is 59.3 µM (inactive).

What about the GI50 [20] of the same compound?
Its GI50 is > 100 µM (inactive).

And the GI50 [21]?
Its GI50 is > 100 µM (inactive).

What about the GI50 [22] of the same compound?
The GI50 was > 100 µM (inactive).

What about the GI50 [23] of the same compound?
Its GI50 is 95.9 µM (inactive).

What about the GI50 [24] of the same compound?
Its GI50 is > 100 µM (inactive).

And the GI50 [25]?
The GI50 was > 100 µM (inactive).

What about the GI50 [26] of the same compound?
The GI50 was > 100 µM (inactive).

What about the GI50 [27] of the same compound?
Its GI50 is > 100 µM (inactive).

What about the GI50 [28] of the same compound?
Its GI50 is 65.2 µM (inactive).

What about the GI50 [29] of the same compound?
The GI50 was > 100 µM (inactive).

And the GI50 [30]?
The GI50 was > 100 µM (inactive).

And the GI50 [31]?
Its GI50 is > 100 µM (inactive).

What about the GI50 [32] of the same compound?
The GI50 was > 100 µM (inactive).

What about the GI50 [33] of the same compound?
The GI50 was > 100 µM (inactive).

What about the GI50 [34] of the same compound?
The GI50 was > 100 µM (inactive).

And the GI50 [35]?
Its GI50 is > 100 µM (inactive).

What about the GI50 [36] of the same compound?
Its GI50 is > 100 µM (inactive).

What about the GI50 [37] of the same compound?
Its GI50 is > 100 µM (inactive).

And the GI50 [38]?
Its GI50 is > 100 µM (inactive).

What about the GI50 [39] of the same compound?
Its GI50 is 89.5 µM (inactive).

What about the GI50 [40] of the same compound?
Its GI50 is > 100 µM (inactive).

What about the GI50 [41] of the same compound?
Its GI50 is > 100 µM (inactive).

What about the GI50 [42] of the same compound?
Its GI50 is > 100 µM (inactive).

What about the GI50 [43] of the same compound?
Its GI50 is > 100 µM (inactive).

What about the GI50 [44] of the same compound?
Its GI50 is > 100 µM (inactive).

What about the GI50 [45] of the same compound?
Its GI50 is 8.97 µM (inactive).

What about the GI50 [46] of the same compound?
Its GI50 is > 100 µM (inactive).

And the GI50 [47]?
Its GI50 is 90.8 µM (inactive).

What about the GI50 [48] of the same compound?
The GI50 was > 100 µM (inactive).

And the GI50 [49]?
The GI50 was > 100 µM (inactive).

And the GI50 [50]?
The GI50 was > 100 µM (inactive).

And the GI50 [51]?
The GI50 was > 100 µM (inactive).

And the GI50 [52]?
The GI50 was > 100 µM (inactive).

And the GI50 [53]?
The GI50 was 54.7 µM (inactive).

And the GI50 [54]?
Its GI50 is > 100 µM (inactive).

Which results are given for CC(=O)NC(Cc1ccccc1)C(=S)N1CCCC1 (stereo unspecified)?
GI50 [1]: > 100 µM (inactive); GI50 [2]: > 100 µM (inactive); GI50 [3]: > 100 µM (inactive); GI50 [4]: > 100 µM (inactive); GI50 [5]: > 100 µM (inactive); GI50 [6]: > 100 µM (inactive); GI50 [7]: > 100 µM (inactive); GI50 [8]: > 100 µM (inactive); GI50 [9]: > 100 µM (inactive); GI50 [10]: > 100 µM (inactive); GI50 [11]: > 100 µM (inactive); GI50 [12]: > 100 µM (inactive); GI50 [13]: > 100 µM (inactive); GI50 [14]: > 100 µM; GI50 [15]: > 100 µM (inactive); GI50 [16]: 15.3 µM (inactive); GI50 [17]: > 100 µM (inactive); GI50 [18]: > 80.5 µM (inactive); GI50 [19]: > 100 µM (inactive); GI50 [20]: > 100 µM (inactive); GI50 [21]: > 100 µM (inactive); GI50 [22]: > 100 µM (inactive); GI50 [23]: > 100 µM (inactive); GI50 [24]: > 100 µM (inactive); GI50 [25]: > 100 µM (inactive); GI50 [26]: > 100 µM (inactive); GI50 [27]: > 100 µM (inactive); GI50 [28]: > 100 µM (inactive); GI50 [29]: > 100 µM (inactive); GI50 [30]: > 100 µM (inactive); GI50 [31]: > 100 µM (inactive); GI50 [32]: > 100 µM (inactive); GI50 [33]: > 100 µM (inactive); GI50 [34]: > 100 µM (inactive); GI50 [35]: > 100 µM (inactive); GI50 [36]: > 100 µM (inactive); GI50 [37]: > 100 µM (inactive); GI50 [38]: > 100 µM (inactive); GI50 [39]: > 100 µM (inactive); GI50 [40]: > 100 µM (inactive); GI50 [41]: > 100 µM (inactive); GI50 [55]: > 100 µM (inactive); GI50 [56]: > 100 µM (inactive); GI50 [57]: > 100 µM (inactive); GI50 [58]: > 100 µM (inactive); GI50 [59]: > 100 µM (inactive); GI50 [42]: > 100 µM (inactive); GI50 [43]: > 100 µM (inactive); GI50 [44]: > 100 µM (inactive); GI50 [45]: 55.3 µM (inactive); GI50 [46]: > 100 µM (inactive); GI50 [48]: > 100 µM (inactive); GI50 [49]: > 100 µM (inactive); GI50 [50]: > 100 µM (inactive); GI50 [51]: > 100 µM (inactive); GI50 [52]: > 100 µM (inactive); GI50 [53]: > 100 µM (inactive); GI50 [54]: > 100 µM (inactive)

What does the source list for COc1nc(/C=N/NC(N)=S)nc(OC)n1?
GI50 [1]: 58.3 µM (inactive); GI50 [2]: 33.7 µM (inactive); GI50 [3]: 56.6 µM (inactive); GI50 [4]: 43.8 µM (inactive); GI50 [5]: 78.5 µM (inactive); GI50 [7]: > 100 µM (inactive); GI50 [8]: > 100 µM (inactive); GI50 [9]: 47.5 µM (inactive); GI50 [10]: 56.9 µM (inactive); GI50 [11]: > 100 µM (inactive); GI50 [12]: 47.1 µM (inactive); GI50 [13]: 64.4 µM (inactive); GI50 [15]: 45.8 µM (inactive); GI50 [16]: > 100 µM (inactive); GI50 [18]: > 100 µM (inactive); GI50 [19]: 76 µM (inactive); GI50 [20]: > 100 µM (inactive); GI50 [21]: > 100 µM (inactive); GI50 [22]: 35.4 µM (inactive); GI50 [23]: > 100 µM (inactive); GI50 [25]: > 100 µM (inactive); GI50 [26]: 55.1 µM (inactive); GI50 [27]: 65.3 µM (inactive); GI50 [28]: 56.8 µM (inactive); GI50 [29]: 72.1 µM (inactive); GI50 [30]: 69.7 µM (inactive); GI50 [31]: > 100 µM (inactive); GI50 [32]: 43.5 µM (inactive); GI50 [33]: 75.5 µM (inactive); GI50 [34]: > 100 µM (inactive); GI50 [35]: > 100 µM (inactive); GI50 [36]: > 100 µM (inactive); GI50 [37]: 56.9 µM (inactive); GI50 [38]: > 100 µM (inactive); GI50 [39]: > 100 µM (inactive); GI50 [40]: 44.2 µM (inactive); GI50 [41]: 61.7 µM (inactive); GI50 [55]: 42.3 µM (inactive); GI50 [56]: 32.4 µM (inactive); GI50 [57]: > 100 µM (inactive); GI50 [58]: > 100 µM (inactive); GI50 [42]: > 100 µM (inactive); GI50 [43]: 71.6 µM (inactive); GI50 [44]: > 100 µM (inactive); GI50 [45]: 32.7 µM (inactive); GI50 [46]: > 100 µM (inactive); GI50 [47]: 68.7 µM (inactive); GI50 [48]: > 100 µM (inactive); GI50 [49]: > 100 µM (inactive); GI50 [50]: 54.8 µM (inactive); GI50 [51]: > 100 µM (inactive); GI50 [52]: 35.3 µM (inactive); GI50 [53]: 56.1 µM (inactive); GI50 [54]: > 100 µM (inactive)
